{"source": "patent US20080072640A1", "about": "“Insecticidal Fertilizer Solids and Method of Preparation” (priority 2006, published 2008)", "assay": "Solubility of imidacloprid in organic solvents", "type": "physicochemical", "from_the_text": "U.S. Pat. No. 5,783,203 mentions acetone as a solvent for imidacloprid. […] Using a 6 wt % solution imidacloprid in acetone would mean applying 1.67 wt % of the solution on the fertilizer based on the combined weight of the fertilizer and the solution to achieve a product with 0.10 wt % imidacloprid. This would be very difficult to achieve a dry product. Fertilizer products with 0.2 wt % and 0.5 wt % imidacloprid would require 3.33 wt % and 8.33 wt % respectively of the imidacloprid solution absorbed onto the fertilizer; concentrations which are not likely feasible in acetone. In addition, acetone is highly flammable which would make processing very difficult and expensive.\nPreferably, the solvent system for use in the present invention consists essentially of either N-methyl-2-pyrrolidone or DMSO. […] Amine-stabilized or caustic-stabilized N-vinyl-pyrrolidone can form a solution with imidacloprid in an amount of about 15 wt % at 25° C. […] The solvent system can consist essentially of N-methyl-2-pyrrolidone, DMSO or a mixture of either N-methyl-2-pyrrolidone or DMSO with one or more co-solvents.\nAn imidacloprid solution was prepared by dissolving imidacloprid in dimethyl sulfoxide (DMSO). […] The resulting solution can be sprayed onto a particulate fertilizer in an amount to provide a dry particulate composition containing about 0.1 wt % imidacloprid.\nThe solubility of imidacloprid TGAI in N-methyl-2-pyrrolidone (NMP) was investigated. NMP has a favorable flash point of 187° F. (closed cup), mild odor, and is slow to volatilize, which are all very favorable properties. […] A 30 wt % solution can easily be prepared to spray onto fertilizer solids. Spraying a 0.50 wt % solution on fertilizer would achieve 0.15 wt % active ingredient. Spraying a 0.67 wt % solution and 1.67% wt % solution would achieve 0.20 wt % and 0.50 wt % active ingredient, respectively. These are highly plausible concentrations for use.", "data": [{"smiles": "O=[N+]([O-])NC1=NCCN1Cc1ccc(Cl)nc1", "note": "[imidacloprid, 1-((6-chloro-3-pyridinyl)methyl)-N-nitro-2-imidazolidinimine]", "values": [{"measurement": "solubility of imidacloprid in NMP", "setting": "solvent N-methyl-2-pyrrolidone (NMP), room temperature", "value": "~35", "unit": "wt %"}, {"measurement": "solubility of imidacloprid in N-methyl-2-pyrrolidone", "setting": "solvent N-methyl-2-pyrrolidone, 25° C.", "value": "about 32 wt %"}, {"measurement": "solubility of imidacloprid in acetone", "setting": "solvent acetone", "value": "less than 7 wt %"}, {"measurement": "solubility of imidacloprid in N-vinyl-pyrrolidone", "setting": "solvent amine-stabilized or caustic-stabilized N-vinyl-pyrrolidone, 25° C.", "value": "about 15 wt %"}, {"measurement": "solubility of imidacloprid in DMSO", "setting": "solvent dimethyl sulfoxide, room temperature of about 23° C.", "value": "about 32 wt %"}]}]}
